Test results taken from PubChem BioAssay (NCI).
Several values for one entry are separate records, joined by “and”; a condition that tells them apart may be missing. Equal values may be shown once.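 Growth conditions: 96-well plates. Treatment: test compound, 48 hours, 5 concentrations. Analysis: linear interpolation between bracketing concentrations; unreached endpoints set to highest concentration. The concentration for 50% growth inhibition is given as GI50. TGI is the concentration that stops growth completely.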

Tests used:
Assay in all cases: NCI tumour cell line growth inhibition, 48 h
A549 NSCLC = tested on: A549 NSCLC
ACHN renal = tested on: ACHN renal
HOP-62 NSCLC = tested on: HOP-62 NSCLC
IGROV1 ovarian = tested on: IGROV1 ovarian
M14 melanoma = tested on: M14 melanoma
MALME-3M melanoma = tested on: MALME-3M melanoma
SK-MEL-2 melanoma = tested on: SK-MEL-2 melanoma
SK-MEL-5 melanoma = tested on: SK-MEL-5 melanoma

Structure (SMILES) | GI50 (A549 NSCLC) [µM] | TGI (A549 NSCLC) [µM] | GI50 (ACHN renal) [µM] | TGI (ACHN renal) | GI50 (HOP-62 NSCLC) [µM] | TGI (HOP-62 NSCLC) [µM] | GI50 (IGROV1 ovarian) [µM] | TGI (IGROV1 ovarian) [µM] | GI50 (M14 melanoma) [µM] | TGI (M14 melanoma) [µM] | GI50 (MALME-3M melanoma) [µM] | TGI (MALME-3M melanoma) [µM] | GI50 (SK-MEL-2 melanoma) [µM] | TGI (SK-MEL-2 melanoma) | GI50 (SK-MEL-5 melanoma) [µM] | TGI (SK-MEL-5 melanoma)
CSc1nc2nc3c(nc2c(=O)n1C)C(=O)c1ccccc1C3=O | 0.0387 | 0.184 | 0.299 | 1.04 µM | 0.097 | 0.413 | 0.271 | 0.778 | 0.0994 | 0.252 | 0.0406 | 0.166 | 0.207 | 0.471 µM | 0.0169 | 0.0322 µM
CCCCCC(O)C(O)CCC[C@H](O)[C@H]1CC[C@H]([C@H]2CC[C@H]([C@H](O)CCCCCCCCCCCCC3=C[C@H](C)OC3=O)O2)O1 (stereo partly drawn) | 3.48 | > 100 | 2.41 | 6.27 µM and 20.8 µM | 15.2 | 32 | 7.46 | 29.4 | 6.98 | 29.9 |  | 29.8 | 15.8 | 5.16 µM and 37.4 µM |  | 3.82 µM and 3.07 µM
CCCCC#Cc1c(I)n(C)c(=O)[nH]c1=O | 19.3 | 34.9 | 1.71 | 3.08 µM | 16.9 | 31 | 1.55 | 3.04 | 2.13 | 4.36 | 1.94 | 3.55 | 1.93 | 4.06 µM | 16.4 | 30 µM
C#C[C@@]1(O)[C@@H](CO)O[C@@H](n2cc(I)c3c(N)ncnc32)[C@@H]1O | 0.298 | > 100 | 0.314 | > 100 µM | 0.747 | 8.69 |  |  | 0.49 | 9.51 | 0.826 | 3.39 | 0.239 | 1.76 µM | 0.209 | 3.3 µM
O=C(/C=C/C=C/c1ccccc1)c1ccco1 | 23.8 | 77.4 | 16.9 | 33.5 µM | 22.2 | 45.8 | 18.3 | 37.6 | 17.3 | 34.8 | 12.6 | 28.6 | 18.8 | 37.3 µM | 15.9 | 29.4 µM
COc1cccc2cc(N(C)c3nc(C)nc4c3CCC4)ccc12 | < 0.01 | 14.2 | < 0.01 | 13.7 µM | < 0.01 | 13.1 | < 0.01 | 23.9 | < 0.01 | 14 | 12 | 27.9 | < 0.01 | 14.2 µM | < 0.01 | 0.0161 µM
C#CC1=CC(=O)C(OC)=CC1=O |  | > 100 |  | 11.3 µM |  | 36.6 |  |  |  | 39.1 |  | 55.2 |  | 33.7 µM |  | 40 µM
ClCc1ccccc1Cn1cnc2ncnc(Cl)c21 | 4.44 | 23.9 | 2 | 4.27 µM | 11.1 | 29 | 4.28 | 22.7 | 1.92 | 5.17 |  |  | 4.2 | 19.7 µM | 1.37 | 4.12 µM
O=C(CN(/C=C/C(=O)C(F)(F)F)c1ccc(Cl)cc1)c1ccc(Cl)c(Cl)c1 | 7.09 | 21.5 | 2.48 | 9.74 µM | 11.5 | 23.8 | 6.8 | 22.1 | 6.51 | 19.3 | 9.98 | 22.3 | 7.15 | 20.7 µM | 5.33 | 20 µM
[N-]=[N+]=NCCCn1c2c(c3ccc([N+](=O)[O-])cc3c1=O)C(=O)c1cc(Br)ccc1-2 | > 100 | > 100 | > 100 | > 100 µM | 56.1 | > 100 | > 100 | > 100 | 3.02 | > 100 | > 100 | > 100 | > 100 | > 100 µM | > 100 | > 100 µM
COc1cc(/C=C/c2ccc(O)c(OC)c2)cc(OC)c1 |  | > 100 |  | 80 µM |  | > 100 |  | > 100 |  | 70.8 |  | > 100 |  |  |  | 77.7 µM
CCN(CC)CCCC(C)Nc1cc(-c2cccc(OC(F)(F)F)c2)nc2ccc(N3CCCC3)cc12 (stereo not drawn) | 0.0677 | > 100 | 0.0744 | 39 µM | 0.0806 | > 48.2 | 0.0941 | > 100 | 0.0361 | 1.16 | 0.0679 | 32.6 | 0.598 | 27 µM | 0.126 | 0.589 µM
O=C(NNc1ccc(Cl)cc1)C1CCC(CNS(=O)(=O)c2ccccc2Cl)CC1 (stereo not drawn) | 8.99 | > 100 | 16.8 | 66.1 µM |  |  | 42.5 | > 100 | 2.89 | 10.7 |  |  | 30.9 | > 100 µM | 18.4 | 39.2 µM
O=C(Nc1ccccc1I(=O)=O)C1CCCCC1 | > 100 | > 100 | > 100 | > 100 µM |  |  | > 100 | > 100 |  |  | > 100 | > 100 | > 100 | > 100 µM | > 100 | > 100 µM
Cc1cc(C)c(C#N)c(Sc2nc(C)c([N+](=O)[O-])c(C)c2C#N)n1 |  |  | 1.75 | 3.38 µM | 3.52 | 12.7 | 3.3 | 12.3 | 3.07 | 10.4 | 2.27 | 5.1 | 2.21 | 5.86 µM | 4.02 | 16.4 µM
CCCOC(=O)c1c(C)n(C)c2scc[n+]12 |  |  | > 100 | > 100 µM | 44.6 | > 100 |  | 22.9 | > 100 | > 100 | > 100 | > 100 | 64.1 | > 100 µM | 49.1 | > 100 µM
CC(=O)N1CCN(CCNC(=O)n2cc(-c3ccncc3)c(-c3cc(O)cc(Cl)c3)n2)CC1 | 15.1 | 38.7 | 8.26 | 61.9 µM | 16.7 | 32.6 | 18.5 | 55.1 | 1.23 | 4.87 |  |  | 10.8 | 27 µM | 3.66 | 16.9 µM
